Assay [1] has as its system isolated rat islet cultures. As to the kind of experiment: Glucagon secretion from collagenase-isolated rat pancreatic islet cultures (Quantikine ELISA). In kind it is cell-based, Wistar rats. The note with it: peptide 1 μg/ml; for Glucagon level, Medium plus Peptide A: RPMI 1640, 11 mmol/L glucose, 10% FCS. As to the method: Digestion of pancreatic tissue with collagenase to isolate islets causes similar disruption to the signalling molecules via disorganization of ECM components including laminin, fibronectin and collagen (Lee & Blaufox, J Nucl Med, 1985, 25:72-76) that results in similarly abnormally high glucagon secretion.
Islets from 2 Wistar rats (˜250 g) were isolated according to the method of Li et al. (Nature Protocols, 2009, 4:1649-1652) and suspended in 30 ml RPMI 1640 containing 11 mmol/L glucose and 10% FCS. One ml islet suspension was added to each well of 24-well plates. Peptide A dimer (SEQ ID NO: 3) was dissolved in HBSS at 100 μg/ml and added to wells at a final concentration of 1 μg/ml. After appropriate incubation times, samples were removed for glucagon measurements using Quantikine ELISA Immunoassay (R&D Systems).

Assay [2] has as its system ALS/MND patients. Description: Clinical data: ALSFRS-R score in ALS/MND patients treated on a named patient basis for 6 months. In kind it is in vivo, human. The text has this: Clinical data were obtained from 19 ALS/MND patients treated on a named patient basis, for a period of 6 months, with the Peptide A dimer (SEQ ID NO: 3).
Average time from diagnosis to treatment was 17.8 months and the decline rate from diagnosis to start of treatment was established for each patient, which averaged at −1.24+/−0.7 decline per month on the ALSFRS-R score. Mean ALSFRS-R score at start of treatment was 32.94+/−8.13, median score 36 (min-max 15-44).

Assay [3] relates to ALS/MND patients. The note with it: cited from earlier work.
The subject of assay [4] is ALS/MND patients. Description: Second Phase III trial of Edaravone in a selected mildly symptomatic group. The settings on record: 24 weeks; mildly symptomatic subgroup.
Assay [5] relates to ALS/MND patients. The note with it: 24 week treatment; mixed patient population, median ALSFRS-R score 43; cited from earlier work.
Assay [6] has as its system ALS/MND patients. The settings on record: over 24 weeks; mildly symptomatic group; placebo lost 7.5 points; cited from earlier work.
For assay [7], the system named is pancreatic α-cell line. The note with it: culture of a pancreatic α-cell line; cited from earlier work.

Consider 4 compounds from patent publication US11191803B2, “Laminin receptor peptides for therapy” (priority 2017, dated 2021).

Several values for one entry are separate records, joined by “and”; a condition that tells them apart may be missing. Identical values can stand only once.

As for “CVPSVPIQQFPTEDWS CVPSVPIQQFPTEDWS [Peptide A dimer]”, the “% Reduction of glucagon secretion vs medium alone” value in assay [1] (4 hours) is 31.6%; in assay [1] (24 hours), 44.8%; in assay [1] (72 hours), 55.2%. For the same compound, the “Glucagon level, Medium plus Peptide A” value in assay [1] (4 hours) was 425.6 ± 14.8 pg/mL; in assay [1] (24 hours), 144.8 ± 8.8 pg/mL; in assay [1] (72 hours) it was 98.3 pg/mL and 98.3 ± 4.7 pg/mL. Also, the “Participants who stabilized and rose one point each on the ALSFRS-R scale, share of group” value in assay [2] (2/19 patients) was determined as 10.5%. For the same compound, the “% Slower Progression (actual vs predicted decline)” value in assay [2] (19 ALS/MND patients) was 62% and 62.07%; in assay [2] (subgroup 7 of 19 patients with faster predicted decline), 76.6%. Also, the “ALSFRS-R Score, C Actual” value in assay [2] (19 ALS/MND patients, actual score to time of analysis, baseline 32.94) is listed as 29.53 +/− 8.26; in assay [2] (subgroup 7 of 19 patients with faster predicted decline, baseline 30.43), 27.00 +/− 9.90. The “Actual Decline (A-C) in ALSFRS-R score” value in assay [2] (19 ALS/MND patients, predicted decline A-B = 8.99) was “A-C = 3.41”; in assay [2] (subgroup 7 of 19 patients, predicted decline A-B = 14.7), “A-C = 3.43”.
In the case of `Nc1nc2ccc(OC(F)(F)F)cc2s1` [Riluzole], the Functional advantage entry in assay [3] is recorded as “no functional advantage demonstrated”.
Take `CC1=NN(c2ccccc2)C(=O)C1` [Edaravone]: the “Slowing down of progression vs placebo” value in assay [4] was determined as 33.3%. Also, in assay [5], the “Efficacy in initial Phase III trial” value is recorded as “failed to show any efficacy”. The “Loss on the ALSFRS-R score” value in assay [6] was 5 points.
methyl-β-cyclodextrin: in assay [7], the Glucagon secretion change result is listed as “doubling of the glucagon secretion” and the Reduction of cholesterol result was “approximately 60%”.
